Source: patent publication US8748435B2, “Pyrazolo pyrimidine derivatives” (Novartis AG, priority 2011, dated 2014)

What was measured:
[1] = tested on: VEGF-induced angiogenesis; assay: GPR4 activity in VEGF-induced angiogenesis in mice (growth factor implant model); type: in vivo; conditions: po 30 mg/kg bid, day 4 after chamber implantation
Description: d) GPR4 Activity in VEGF-Induced Angiogenesis in Mice
The functional activity of GPR4 was determined in the angiogenesis growth factor implant model. Porous tissue chambers made of perfluoro-alkoxy-Teflon were filled with 0.8% agar and 20 U/ml heparin supplemented with or without 8 μg/ml recombinant human VEGF. The solutions were maintained at 39° C. prior to the filling procedure. Mice were anesthetized using 3% isoflurane inhalation. For subcutaneous implantation, a small skin incision was made at the base of the tail to allow the insertion of an implant trocar. The chamber was implanted under aseptic conditions through the small incision onto the back of the animal. The skin incision was closed by wound clips. The compounds were applied po at 30 mg/kg bid starting at the day of the chamber implantation.
On the 4th day after implantation, animals were sacrificed using CO2. Chambers were excised and the vascularized fibrous tissue formed around each implant carefully removed and weighed and expressed as Δ tissue weight % [((compound/VEGF)−(no compound/no VEGF))/((no compound/VEGF)−no compound/no VEGF))×100]. Body weight was used to monitor the general condition of the mice.

CFA-induced hyperalgesia = assay: Established rat hyperalgesia model (CFA); type: in vivo; conditions: gavage
Description: f) Established Rat Hyperalgesia Model
Naïve withdrawal thresholds of both hind paws were determined by using an increasing pressure stimulus placed onto the dorsal surface of each paw using an analgesymeter. Delayed inflammatory pain was then induced by intra-plantar injection of 25 μl of complete Freund's adjuvant (CFA) into one hindpaw with the contralateral paw acting as the control. […] One hour later, paw withdrawal thresholds were re-measured on both the ipsilateral (CFA-injected) and contralateral (uninjected) paw; measurements were repeated at 3 hrs and 6 hrs post dosing. The reversal of hyperalgesia was calculated using the following formula: Reversal (%)=100×(postdose ipsilateral threshold−predose ipsilateral threshold) (naïve ipsilateral threshold−predose ipsilateral threshold).

[2] = tested on: antigen-induced arthritis (knee swelling); assay: Rat antigen-induced arthritis model; type: in vivo; conditions: oral gavage, AUC of R/L knee swelling ratio vs control
Description: e) GPR4 Activity in Rat Antigen-induced Arthritis Model Female Lewis rats were sensitised intradermally on the back at two sites to methylated bovine serum albumin (mBSA) homogenised 1:1 with complete Freund's adjuvant on days −21 and −14 (0.1 ml containing 1 mg/ml mBSA). On day 0, the right knee received […] of 10 mg/ml mBSA in 5% glucose solution (antigen injected knee), while the left knee received […] of 5% glucose solution alone (vehicle injected knee). The diameters of the left and right knees were then measured using calipers immediately after the intra-articular injections and again on days 2, 4 and 7. The compounds of the invention were administered twice daily by oral gavage; vehicle (saline) at 5 ml/kg, and dexamethasone at 0.3 mg/kg was given as a control. Right knee swelling was calculated as a ratio of left knee swelling, and the R/L knee swelling ratio plotted against time to give Area Under the Curve (AUC) graphs for control and treatment groups. The percentage inhibition of the individual treatment group AUCs were calculated vs the control group AUC (0% inhibition).

rat GPR4 = rat GPR4 (Rattus norvegicus (Rat), UniProt Q4KLH9); assay: Rat GPR4 cAMP assay; type: cell-based; conditions: read-out: r cAMP IC50
Chain of rat GPR4 (Q4KLH9 whole entry): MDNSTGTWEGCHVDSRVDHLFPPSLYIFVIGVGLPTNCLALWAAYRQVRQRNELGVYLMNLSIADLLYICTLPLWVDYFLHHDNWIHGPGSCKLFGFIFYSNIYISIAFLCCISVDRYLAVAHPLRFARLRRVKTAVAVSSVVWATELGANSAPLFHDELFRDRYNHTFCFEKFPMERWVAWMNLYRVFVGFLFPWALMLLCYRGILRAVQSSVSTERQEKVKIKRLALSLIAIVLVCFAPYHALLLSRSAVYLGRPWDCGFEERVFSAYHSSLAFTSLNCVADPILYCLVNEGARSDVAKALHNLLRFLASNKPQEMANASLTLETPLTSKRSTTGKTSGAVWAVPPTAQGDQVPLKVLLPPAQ

Human H3 = Human H3 (Homo sapiens (Human), UniProt Q9Y5N1); assay: Human H3 binding assay (SPA, [3H]-R-alpha-Methylhistamine); conditions: 3 nM [3H]-R-alpha-Methylhistamine
Chain of Human H3 (Q9Y5N1 whole entry): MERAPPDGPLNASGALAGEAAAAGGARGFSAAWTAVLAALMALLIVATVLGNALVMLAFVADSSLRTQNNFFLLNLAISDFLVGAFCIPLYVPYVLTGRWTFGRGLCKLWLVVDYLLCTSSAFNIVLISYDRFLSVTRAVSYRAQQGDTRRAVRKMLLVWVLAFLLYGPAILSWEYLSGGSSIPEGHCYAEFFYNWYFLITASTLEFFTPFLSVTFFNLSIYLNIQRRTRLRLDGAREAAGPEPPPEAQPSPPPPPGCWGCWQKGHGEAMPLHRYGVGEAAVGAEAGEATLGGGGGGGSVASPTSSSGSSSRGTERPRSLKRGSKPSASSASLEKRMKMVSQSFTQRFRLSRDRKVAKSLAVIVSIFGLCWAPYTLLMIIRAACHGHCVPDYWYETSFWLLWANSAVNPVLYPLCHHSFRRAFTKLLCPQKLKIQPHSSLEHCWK

human GPR4 [3] = molecular target: T1, human GPR4 (Homo sapiens (Human), UniProt P46093); assay: Cell-based assay for human GPR4 activity (pH-induced cAMP formation, HTRF, HeLa cells); conditions: HeLa cells stably expressing human GPR4, pH-induced cAMP
T1 sequence (P46093 whole entry): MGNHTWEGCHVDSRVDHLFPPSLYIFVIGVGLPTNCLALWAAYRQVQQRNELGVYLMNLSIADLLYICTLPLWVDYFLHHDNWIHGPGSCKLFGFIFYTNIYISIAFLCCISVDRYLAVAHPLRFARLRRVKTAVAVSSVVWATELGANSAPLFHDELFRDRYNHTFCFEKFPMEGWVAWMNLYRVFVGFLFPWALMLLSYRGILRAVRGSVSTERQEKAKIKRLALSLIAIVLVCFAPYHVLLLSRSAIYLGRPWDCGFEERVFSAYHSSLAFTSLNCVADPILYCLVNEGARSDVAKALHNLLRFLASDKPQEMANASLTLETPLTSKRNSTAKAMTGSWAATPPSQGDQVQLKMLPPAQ

mouse GPR4 = mouse GPR4 (Mus musculus (Mouse), UniProt Q8BUD0); assay: Mouse GPR4 cAMP assay; type: cell-based
Chain of mouse GPR4 (Q8BUD0 whole entry): as the sequence (Q4KLH9 whole entry) above, with W8G, R51H, T339S counted along it

human GPR4 [4] = molecular target: T1, human GPR4; assay: Human GPR4 binding assay ([3H]4 radioligand, membranes of 300.19 cells expressing human GPR4); conditions: radioligand [3H]4 (example 39), membranes of 300.19 cells expressing human GPR4
human GPR4 [5] = molecular target: T1, human GPR4; assay: Human GPR4 binding assay with additional human serum albumin (4% HSA); conditions: binding assay with 4% HSA

SMILES	Δ tissue weight [1]	% reversal of hyperalgesia (CFA-induced hyperalgesia; 3 mg/kg, 1 h)	% reversal of hyperalgesia (CFA-induced hyperalgesia; 3 mg/kg, 3 h)	% reversal of hyperalgesia (CFA-induced hyperalgesia; 3 mg/kg, 6 h)	% reversal of hyperalgesia (CFA-induced hyperalgesia; 10 mg/kg, 1 h)	% reversal of hyperalgesia (CFA-induced hyperalgesia; 10 mg/kg, 3 h)	% reversal of hyperalgesia (CFA-induced hyperalgesia; 10 mg/kg, 6 h)	% reversal of hyperalgesia (CFA-induced hyperalgesia; 30 mg/kg, 1 h)	% reversal of hyperalgesia (CFA-induced hyperalgesia; 30 mg/kg, 3 h)	% reversal of hyperalgesia (CFA-induced hyperalgesia; 30 mg/kg, 6 h)	Inhibition of swelling ([2]; 30 mg/kg bid)	Inhibition of swelling ([2]; 60 mg/kg bid)	Inhibition of swelling ([2]; 90 mg/kg bid)	IC50 (rat GPR4)	IC50 (Human H3)	IC50 (human GPR4 [3])	IC50 (mouse GPR4)	IC50 (human GPR4 [4])	IC50 (human GPR4 [5])
CCc1nn2c(C)cc(C)nc2c1Cc1ccc(-c2nnc(C3CCNCC3)o2)cc1 [Example 35, 2-Ethyl-5,7-dimethyl-3-[4-(5-piperidin-4-yl-[,3,4]oxadiazol-2-yl)-benzyl]-pyrazolo[1,5-a]pyrimidine]	49%	36%	25%	5%	43%	36%	15%	62%	47%	25%	26%	34%	40%						
CCc1nn2c(C)cc(C)nc2c1Cc1ccc(/C=C/CN2CCN[C@@H](C)C2)cc1 [Example 9, 2-Ethyl-5,7-dimethyl-3-{4-[(E)-3-((S)-3-methyl-piperazin-1-yl)-propenyl]-benzyl}-pyrazolo[1,5-a]pyrimidine]	44%													1440 nM	18000 nM	59 nM	890 nM	19 nM	6 nM
